Source: US10047081B2, “BACE1 inhibitors” (Hoffmann-La Roche Inc., priority 2015, dated 2018)

Target: T1, BACE1 (Homo sapiens, UniProt P56817)
T1 construct: endogenous in cells; host or cells: HEK293 APP cells
Assay: Cellular Aβ-lowering assay (Abeta 40 AlphaLISA, HEK293 APP cells)
Type: cell-based
Details: 18-20 hrs incubation, Aβ 40 in culture supernatant, read-out: BACE1 cell act. Aβ40 IC50
Description: Cellular Aβ-Lowering Assay:
The Abeta 40 AlphaLISA Assay can be used. The HEK293 APP cells were seeded in 96 well Microtiter plates in cell culture medium (Iscove's, plus 10% (v/v) fetal bovine serum, penicillin/streptomycin) to about 80% confluency and the compounds were added at a 3× concentration in ⅓ volume of culture medium (final DMSO concentration was kept at 1% v/v). After 18-20 hrs incubation at 37° C. and 5% CO2 in a humidified incubator, the culture supernatants were harvested for the determination of Aβ 40 concentrations using Perkin-Elmer Human Amyloid beta 1-40 (high specificity) Kit (Cat#AL275C).
In a Perkin-Elmer White Optiplate-384 (Cat#6007290), 2 ul culture supernatants were combined with 2 μl of a 10× AlphaLISA Anti-hAβAcceptor beads + Biotinylated Antibody Anti-Aβ 1-40 Mix (50 μg/mL/5 nM). After 1 hour room temperature incubation, 16 μl of a 1.25× preparation of Streptavidin (SA) Donor beads (25 μg/mL) were added and incubated for 30 minutes in the Dark. Light Emission at 615 nm was then recorded using EnVision-Alpha Reader. Levels of Aβ 40 in the culture supernatants were calculated as percentage of maximum signal (cells treated with 1% DMSO without inhibitor). The IC50 values were calculated using the Excel XLfit software.

T1 sequence (P56817 46-501): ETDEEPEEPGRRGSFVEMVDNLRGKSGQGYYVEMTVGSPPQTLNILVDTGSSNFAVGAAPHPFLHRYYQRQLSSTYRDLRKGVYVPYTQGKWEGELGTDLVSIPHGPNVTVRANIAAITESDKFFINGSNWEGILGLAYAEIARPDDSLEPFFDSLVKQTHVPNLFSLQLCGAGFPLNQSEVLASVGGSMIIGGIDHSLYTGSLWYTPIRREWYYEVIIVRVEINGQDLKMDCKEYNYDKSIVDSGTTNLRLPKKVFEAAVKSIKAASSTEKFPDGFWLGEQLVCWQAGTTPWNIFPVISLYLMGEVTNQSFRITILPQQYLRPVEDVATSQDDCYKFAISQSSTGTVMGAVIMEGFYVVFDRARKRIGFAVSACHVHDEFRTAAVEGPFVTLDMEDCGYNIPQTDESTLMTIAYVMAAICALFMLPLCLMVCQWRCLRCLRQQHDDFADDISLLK

Structure (SMILES) | IC50
CN=[S@@]1(=O)C[C@@](C)(c2cc(-c3cc(-c4ncc(OC)cn4)no3)ccc2F)N=C(N)C12CCCC2 [Example 29, (6R,8R)-10-amino-8-(2-fluoro-5-(3-(5-methoxypyrimidin-2-yl)isoxazol-5-yl)phenyl)-8-methyl-6-(methylimino)-6-thia-9-azaspiro[4.5]dec-9-ene 6-oxide 2,2,2-trifluoroacetate] | 20 nM
CN=[S@@]1(=O)C[C@@](C)(c2cc(-c3cc(-c4cnc(OCC(F)F)cn4)no3)ccc2F)N=C(N)C12CCCC2 [Example 30, (6R,8R)-10-amino-8-(5-(3-(5-(2,2-difluoroethoxy)pyrazin-2-yl)isoxazol-5-yl)-2-fluorophenyl)-8-methyl-6-(methylimino)-6-thia-9-azaspiro[4.5]dec-9-ene 6-oxide] | 104 nM
COc1cnc(-c2cc(-c3ccc(F)c([C@]4(C)C[S@](=O)(=NC5CC5)C(C)(C)C(N)=N4)c3)on2)cn1 [Example 33, (1R,3R)-5-amino-1-(cyclopropylimino)-3-(2-fluoro-5-(3-(5-methoxypyrazin-2-yl)isoxazol-5-yl)phenyl)-3,6,6-trimethyl-3,6-dihydro-2H-1,4-thiazine 1-oxide] | 92 nM
CC1(C)C(N)=N[C@](C)(c2cc(-c3cc(-c4ncc(Cl)cn4)no3)ccc2F)C[S@]1(=O)=NC1CC1 [Example 34, (1R,3R)-3-[5-[3-(5-chloropyrimidin-2-yl)isoxazol-5-yl]-2-fluoro-phenyl]-1-cyclopropylimino-3,6,6-trimethyl-1-oxo-2H-1,4-thiazin-5-amine 2,2,2-trifluoroacetate] | 13 nM

Results, then the molecule that gave them:

IC50 | Structure (SMILES)
7 nM | CC1(C)C(N)=N[C@](C)(c2cc(-c3cc(-c4ncc(Cl)cn4)no3)ccc2F)C[S@@]1(=O)=NC1CC1 [Example 36, (1S,3R)-5-amino-3-(5-(3-(5-chloropyrimidin-2-yl)isoxazol-5-yl)-2-fluorophenyl)-1-(cyclopropylimino)-3,6,6-trimethyl-3,6-dihydro-2H-1,4-thiazine 1-oxide 2,2,2-trifluoroacetate]
6 nM | COc1cnc(-c2cc(-c3ccc(F)c([C@]4(C)C[S@@](=O)(=NCC(F)(F)F)C(C)(C)C(N)=N4)c3)on2)cn1 [Example 37, (1S,3R)-5-amino-3-(2-fluoro-5-(3-(5-methoxypyrazin-2-yl)isoxazol-5-yl)phenyl)-3,6,6-trimethyl-1-((2,2,2-trifluoroethyl)imino)-3,6-dihydro-2H-1,4-thiazine 1-oxide 2,2,2-trifluoroacetate]
13 nM | CC1(C)C(N)=N[C@](C)(c2cc(-c3cc(-c4ncc(Cl)cn4)no3)ccc2F)C[S@@]1(=O)=NCC(F)(F)F [Example 38, (1S,3R)-5-amino-3-(5-(3-(5-chloropyrimidin-2-yl)isoxazol-5-yl)-2-fluorophenyl)-3,6,6-trimethyl-1-((2,2,2-trifluoroethyl)imino)-3,6-dihydro-2H-1,4-thiazine 1-oxide 2,2,2-trifluoroacetate]
232 nM | COc1cnc(-c2cc(-c3ccc(F)c([C@]4(C)C[S@](=O)(=NCC(F)(F)F)C(C)(C)C(N)=N4)c3)on2)cn1 [Example 39, (1R,3R)-5-amino-3-(2-fluoro-5-(3-(5-methoxypyrazin-2-yl)isoxazol-5-yl)phenyl)-3,6,6-trimethyl-1-((2,2,2-trifluoroethyl)imino)-3,6-dihydro-2H-1,4-thiazine 1-oxide 2,2,2-trifluoroacetate]
37 nM | CC1(C)C(N)=N[C@](C)(c2cc(-c3cc(-c4ncc(Cl)cn4)no3)ccc2F)C[S@]1(=O)=NCC(F)(F)F [Example 40, (1R,3R)-5-amino-3-(5-(3-(5-chloropyrimidin-2-yl)isoxazol-5-yl)-2-fluorophenyl)-3,6,6-trimethyl-1-((2,2,2-trifluoroethyl)imino)-3,6-dihydro-2H-1,4-thiazine 1-oxide 2,2,2-trifluoroacetate]
